Data: patent US8653046B2, “Controlling transgene expression across the skin” (ETH Zurich, priority 2009, dated 2014)

Tests used:
[1] = tested on: macrolide-responsive control system (ET1, E-VP16; PETR3-SAMY-pA); experiment: Compatibility test: macrolide-responsive (EOFF) SAMY production in CHO-PEACE8 (pWW35, pBP100); type: cell-based; conditions: CHO-PEACE8 transiently transfected with macrolide-responsive control system; Phl 50 μM, EM 2 μg/mL; 48 h; 100 = no inducer
From the text: (§1) To evaluate the functional compatibility of PEACE with the established tetracycline— [TETOFF; Gossen M., Bujard H., 1992, Proc Natl Acad Sci USA 89(12):5547-5551] and macrolide— [EOFF; Weber W., et al., 2002, Nat Biotechnol 20(9):901-907] responsive expression circuits CHO-PEACE8 is transiently transfected, transgenic for phloretin-responsive SEAP expression, with either the TETOFF-(pSAM200, PSV40-tTA-pA; pBP99, PhCMV*-1-SAMY-pA) or the EOFF-(PWW35, PSV40-ET1-pA; pBP100, PETR3-SAMY-pA) system set to control the Bacillus stearothermophilus-derived secreted α-amylase (SAMY) in response to tetracycline and erythromycin, respectively. SEAP and SAMY expression are scored 48 h after cultivation of the transfected populations in the presence (50 μM; 2 μg/mL) or absence of the inducer molecules (phloretin, tetracycline, erythromycin).

TtgA1 (TtgR-VP16) [2] = target: T1, TtgA1 (TtgR-VP16) (Pseudomonas putida, UniProt Q9AIU0); experiment: Compatibility test: phloretin-responsive SEAP production of CHO-PEACE8; type: cell-based, Pseudomonas putida DOT-T1E; set-up: expressed in transfected cells; host or cells: CHO-K1 (transient pMG11 or pMG13); also HEK-293, BHK-21, COS-7, HaCaT, HT-1080, NIH/3T3, primary human fibroblasts and keratinocytes; conditions: Phl 50 μM, 48 h, 100 = no inducer
From the text: as §1
The stable CHO-PEACE8 cell line, transgenic for phloretin-controlled SEAP expression, is constructed in two steps: (i) CHO-K1 cells are co-transfected with pMG11 (PSV40-TtgA1-pA) and pSV2neo (Clontech, Cat. No. 6172-1) at a ratio of 20:1 and clonal selection results in the cell line CHO-TtgA. (ii) CHO-TtgA is co-transfected with pMG10 (PTtgR1-SEAP-pA) and pPur (Clontech, Cat. No. 6156-1) (ratio of 20:1) and the phloretin-responsive SEAP-producing double-transgenic cell line CHO-PEACE8 is chosen after clonal selection. […] Reversibility of phloretin-mediated SEAP production is assessed by cultivating CHO-PEACE8 (100,000 cells/mL) for 144 h while alternating phloretin concentrations from 0 to 50 μM every 48 h.

[3] = target: T2, tetracycline-responsive control system (PSV40-tTA-pA; PhCMV*-1-SAMY-pA) (Escherichia coli, UniProt P04483); experiment: Compatibility test: tetracycline-responsive (TETOFF) SAMY production in CHO-PEACE8 (pSAM200, pBP99); type: cell-based; conditions: CHO-PEACE8 transiently transfected with tetracycline-responsive control system; Phl 50 μM, Tet 2 μg/mL; 48 h; 100 = no inducer
T2 construct: expressed in transfected cells; host or cells: CHO-PEACE8 transiently transfected with pSAM200 and pBP99
From the text: as §1

CHO-K1 = experiment: Toxicity of flavonoids: CHO-K1 transiently transfected with pSEAP2-Control, SEAP levels after 48 h; conditions: 0, 25, 50 μM, genistein cytotoxic only at 50 μM
Procedure: (A) Toxicity of flavonoids. CHO-K1 are transiently transfected with pSEAP2-Control, and cultivated in medium supplemented with different flavonoids (0, 25, 50 μM). SEAP levels are scored after 48 h.
(§2) CHO-K1 are transiently (co-)transfected with either pMG10 (PTtgR1-SEAP-pA) and pMG11 (PSV40-TtgA1-pA), to score regulation performance, or with pSEAP2-Control (PSV40-SEAP-pA), to assess compound-related cytotoxicity, and then cultivated for 48 h in medium containing different concentrations (0, 25, 50 μM) of specific flavonoid type compounds (berberine, butylparaben, genistein, luteolin, β-naphthol, naringenin, phloretin, phloridzin or quercetin) before SEAP production is profiled (FIG. 5A).
Wild-type Chinese hamster ovary cells (CHO-K1, ATCC: CCL-61) and their derivatives are cultivated in standard medium: ChoMaster® HTS (Cell Culture Technologies, Gravesano, Switzerland) supplemented with 5% (v/v) fetal calf serum (FCS, PAN Biotech GmbH, Aidenbach, Germany, Cat. No. 3302, Lot No. P251110) and 1% (v/v) penicillin/streptomycin solution (Sigma, St Louis, Mo., USA, Cat. No. P4458). Human embryonic kidney cells (HEK-293, Mitta B., et al., 2002, Nucleic Acids Res 30(21):e113), African green monkey kidney cells (COS-7, ATCC: CRL-1651), baby hamster kidney cells (BHK-21, ATCC: CCL10), human fibrosarcoma cells (HT-1080, ATCC: CCL-121), the human keratinocyte cell line HaCaT (Boukamp P., et al., 1988, J Cell Biol 106(3):761-771) and mouse fibroblasts (NIH/3T3, ATCC: CRL-1658) are cultured in Dulbecco's modified Eagle's medium (DMEM; Invitrogen, Cat. No. 52100-39) supplemented with 10% FCS (v/v) and 1% (v/v) penicillin/streptomycin solution. Primary human foreskin fibroblasts are cultivated in DMEM supplemented with 20% FCS (v/v) and 1% (v/v) penicillin/streptomycin solution and primary human foreskin keratinocytes are cultured in chemically defined serum-free keratinocyte medium (Invitrogen, Cat. No. 10744019). All cell types are cultivated at 37° C. in a 5% CO2-containing humidified atmosphere. For transient transfection of CHO-K1, 1 μg of total plasmid DNA (for co-transfection an equal amount of each plasmid) is transfected into 50,000 cells per well of a 24-well plate according to an optimized calcium phosphate protocol (Greber D., Fussenegger M., 2007, Biotechnol Bioeng 96(5):821-834). Plasmid DNA is diluted to a total volume of 25 μL 0.5 M CaCl2 solution, which is mixed with 25 μL 2×HBS solution (50 mM HEPES, 280 mM NaCl, 1.5 mM Na2HPO4, pH 7.1). After incubation for 15 min at room temperature, the precipitates are immediately added to the well and centrifuged onto the cells (5 min at 1,200×g) to increase transfection efficiency. After 3 h, the cells are treated with 0.5 mL glycerol solution (ChoMaster® HTS medium containing 15% glycerol) for 60 sec. After washing once with phosphate-buffered saline (PBS, Dulbecco's Phosphate-Buffered Saline; Invitrogen, Cat. No. 21600-0069), cells are cultivated in 0.5 mL standard ChoMaster® HTS medium in the presence or absence of different concentrations of phloretin. For transfection of BHK-21, COS-7 and HEK-293, plasmid DNA-Ca2PO4 precipitate is prepared and applied to the cells as described above. HEK-293 and COS-7 cells are washed once with PBS after 3 h incubation with the DNA-Ca2PO4 precipitate and subsequently cultivated in standard DMEM, while BHK-21 cells are incubated overnight with the precipitates and then cultivated in DMEM medium after being washed once with PBS. […]

TtgA1 (TtgR-VP16) [4] = target: T1, TtgA1 (TtgR-VP16); experiment: PEACE: SEAP expression after transient co-transfection of pMG10 (PTtgR1-SEAP-pA) and pMG11 (PSV40-TtgA1-pA); type: cell-based; conditions: CHO-K1, 0, 25, 50 μM, 48 h
From the text: Living in the plant rhizosphere, Pseudomonas putida DOT-T1E has evolved resistance to a variety of plant-derived antimicrobials, which is triggered by phloretin-induced release of TtgR protein from the operator (OTtgR) of its target promoter and subsequent induction of a broadly specific TtgABC efflux pump (Teran W. et al., loc. cit.).
Three different transactivators are designed, harboring either the VP16 (TtgA1; pMG11, TtgR-VP16) (Triezenberg S. J. et al., loc. cit.), the p65 (TtgA2; pMG18, TtgR-p65) (Urlinger S., et al., 2000, Gene 247(1-2):103-110) or the human E2F4 (TtgA3; pMG19, TtgR-E2F4) (Akagi K., Kanai M., Saya H., Kozu T., Berns A., 2001, Nucleic Acids Res 29(4):e23) transactivation domains. pMG11, pMG18 or pMG19 are co-transfected with pMG10 (PTtgR1-SEAP-pA) into CHO-K1, HEK-293 as well as primary human fibroblasts and keratinocytes, and SEAP expression is profiled after 48 h of cultivation in the presence or absence of 50 μM phloretin.
as §2
Wild-type Chinese hamster ovary cells (CHO-K1, ATCC: CCL-61) and their derivatives are cultivated in standard medium: ChoMaster® HTS (Cell Culture Technologies, Gravesano, Switzerland) supplemented with 5% (v/v) fetal calf serum (FCS, PAN Biotech GmbH, Aidenbach, Germany, Cat. No. 3302, Lot No. P251110) and 1% (v/v) penicillin/streptomycin solution (Sigma, St Louis, Mo., USA, Cat. No. P4458). Human embryonic kidney cells (HEK-293, Mitta B., et al., 2002, Nucleic Acids Res 30(21):e113), African green monkey kidney cells (COS-7, ATCC: CRL-1651), baby hamster kidney cells (BHK-21, ATCC: CCL10), human fibrosarcoma cells (HT-1080, ATCC: CCL-121), the human keratinocyte cell line HaCaT (Boukamp P., et al., 1988, J Cell Biol 106(3):761-771) and mouse fibroblasts (NIH/3T3, ATCC: CRL-1658) are cultured in Dulbecco's modified Eagle's medium (DMEM; Invitrogen, Cat. No. 52100-39) supplemented with 10% FCS (v/v) and 1% (v/v) penicillin/streptomycin solution. Primary human foreskin fibroblasts are cultivated in DMEM supplemented with 20% FCS (v/v) and 1% (v/v) penicillin/streptomycin solution and primary human foreskin keratinocytes are cultured in chemically defined serum-free keratinocyte medium (Invitrogen, Cat. No. 10744019). All cell types are cultivated at 37° C. in a 5% CO2-containing humidified atmosphere.

T1 sequence (Q9AIU0 whole entry, added parts left off): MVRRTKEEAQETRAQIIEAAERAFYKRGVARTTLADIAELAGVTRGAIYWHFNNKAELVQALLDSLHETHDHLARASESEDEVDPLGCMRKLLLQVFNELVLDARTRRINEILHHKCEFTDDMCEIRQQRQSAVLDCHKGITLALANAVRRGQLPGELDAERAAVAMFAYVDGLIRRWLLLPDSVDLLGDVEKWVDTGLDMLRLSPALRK
T2 sequence (P04483 whole entry, added parts left off): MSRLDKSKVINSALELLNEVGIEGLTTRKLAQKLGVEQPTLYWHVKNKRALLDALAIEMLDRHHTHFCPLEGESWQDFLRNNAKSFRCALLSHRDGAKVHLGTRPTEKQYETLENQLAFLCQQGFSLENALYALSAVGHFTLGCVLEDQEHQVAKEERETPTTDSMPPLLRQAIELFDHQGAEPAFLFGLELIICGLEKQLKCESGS

Structure (SMILES)	compound-related cytotoxicity / cell viability (CHO-K1)	PEACE regulation performance (SEAP production) (TtgA1 (TtgR-VP16) [4])	other results
CC[C@H]1OC(=O)[C@H](C)[C@@H](O[C@H]2C[C@@](C)(OC)[C@@H](O)[C@H](C)O2)[C@H](C)[C@@H](O[C@@H]2O[C@H](C)C[C@H](N(C)C)[C@H]2O)[C@](C)(O)C[C@@H](C)C(=O)[C@H](C)[C@@H](O)[C@]1(C)O [EM, erythromycin]			Relative SAMY Production (%) [1]: 1.5 ± 1.8%; Relative SEAP Production (%) (TtgA1 (TtgR-VP16) [2]; CHO-PEACE8 transiently transfected with macrolide-responsive control system, EM 2 μg/mL): 102.7 ± 5.3%
CN(C)[C@@H]1C(O)=C(C(N)=O)C(=O)[C@@]2(O)C(O)=C3C(=O)c4c(O)cccc4[C@@](C)(O)[C@H]3C[C@@H]12 [Tet, tetracycline]			Relative SAMY Production (%) [3]: 3.0 ± 0.4%; Relative SEAP Production (%) (TtgA1 (TtgR-VP16) [2]; CHO-PEACE8 transiently transfected with tetracycline-responsive control system, Tet 2 μg/mL): 93.2 ± 3.8%
COc1ccc2cc3[n+](cc2c1OC)CCc1cc2c(cc1-3)OCO2 [berberine]	do not reduce cell viability	fails to control PEACE	
CCCCOC(=O)c1ccc(O)cc1 [butylparaben, butyl 4-hydroxybenzoate]	do not reduce cell viability	able to regulate but not fully repress SEAP production	
O=c1c(-c2ccc(O)cc2)coc2cc(O)cc(O)c12 [genistein]	cytotoxic		
O=C1C[C@@H](c2ccc(O)cc2)Oc2cc(O)cc(O)c21 [naringenin]	cytotoxic		
